Values of other authors in US20030119753A1, “Novel ascorbic acid compounds, methods of synthesis and application use thereof” (priority 2001, published 2003).

Conditions: relative to ascorbic acid

**Q.** With `O=C1O[C@H]([C@@H](O)CO)C(O)=C1OS(=O)(=O)O` [L-ascorbate 2-sulphate] as the molecule, how does the “more stable than ascorbic acid” value read?
**A.** 20 times
